Test results published in US10994015B2, “EGFR proteolysis targeting chimeric molecules and associated methods of use” (Arvinas Operations, Inc., priority 2016, dated 2021).
pIC50: −log10 of the molar value.

Legend:
[1] = target: EGFR-wt (MDA-MB-231 or MCF7 or A549 or OVCAR8) (Homo sapiens (Human), UniProt P00533); assay: EGFR protein degradation assay (Western blot); format: cell-based; conditions: 72 hours, 300 nM to 10 nM
Outline: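 EGFR degradation was assessed by Western blot. Cells expressing the appropriate EGFR were seeded in 6-well plates (300,000 cells per well) and adhered overnight. Media was removed, cells were washed with cold phosphate-buffered saline, scraped into 400 μl Cell Signaling lysis buffer plus protease inhibitor cocktail, and spun once at 10 000 rpm for 10 minutes. After BCA quantification, loading buffer and reducing agent were added. Gels loaded with 10 μg protein ran at 165V for 2 hours, and bands were visualized by chemiluminescence.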

[2] = target: EGFR Exon 20 ASV (HeLa*) (Homo sapiens (Human), UniProt P00533, DUP767-769); assay: EGFR protein degradation assay (Western blot); format: cell-based; conditions: 72 hours, 300 nM to 10 nM
[3] = target: EGFR WT (Homo sapiens (Human), UniProt P00533); assay: TR-FRET assay for ERBB kinases; format: biochemical; conditions: geometric mean if measured more than once
Outline: (§1)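 HEPES pH 7.5 buffer with 10 mM MgCl2 and 1 mM DTT; 10 min enzyme–compound pre-incubation. A 10 min room-temperature reaction was initiated by a mix carrying 3 mM ATP, stopped with EDTA, and detected by time-resolved FRET at 340 nm excitation.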

[4] = target: EGFR L858R/T790M (Homo sapiens (Human), UniProt P00533, L858R/T790M); assay: TR-FRET assay for ERBB kinases; format: biochemical; conditions: geometric mean if measured more than once
Outline: as §1

[5] = target: EGFR L858R/T790M/C797S (Homo sapiens (Human), UniProt P00533, C797S/L858R/T790M); assay: TR-FRET assay for ERBB kinases; format: biochemical; conditions: geometric mean if measured more than once
Outline: as §1

[6] = target: EGFR Exon20NPG (Homo sapiens (Human), UniProt P00533, INS770NPG); assay: TR-FRET assay for ERBB kinases; format: biochemical; conditions: geometric mean if measured more than once
Outline: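 Phosphorylation of fluorescein-labeled poly-GluTyr read as TR-FRET using Tb-pY20 antibody after EDTA stop, with 340 nm excitation. Kinase reaction ran 10 min at room temperature following 10 min compound pre-incubation; substrate mix held 3 mM ATP and 30 µM peptide before addition. Buffer was HEPES pH 7.5.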

Sequence of EGFR Exon 20 ASV (HeLa*) (P00533 other isoform, or with tags, fused parts or gaps dup 767-769): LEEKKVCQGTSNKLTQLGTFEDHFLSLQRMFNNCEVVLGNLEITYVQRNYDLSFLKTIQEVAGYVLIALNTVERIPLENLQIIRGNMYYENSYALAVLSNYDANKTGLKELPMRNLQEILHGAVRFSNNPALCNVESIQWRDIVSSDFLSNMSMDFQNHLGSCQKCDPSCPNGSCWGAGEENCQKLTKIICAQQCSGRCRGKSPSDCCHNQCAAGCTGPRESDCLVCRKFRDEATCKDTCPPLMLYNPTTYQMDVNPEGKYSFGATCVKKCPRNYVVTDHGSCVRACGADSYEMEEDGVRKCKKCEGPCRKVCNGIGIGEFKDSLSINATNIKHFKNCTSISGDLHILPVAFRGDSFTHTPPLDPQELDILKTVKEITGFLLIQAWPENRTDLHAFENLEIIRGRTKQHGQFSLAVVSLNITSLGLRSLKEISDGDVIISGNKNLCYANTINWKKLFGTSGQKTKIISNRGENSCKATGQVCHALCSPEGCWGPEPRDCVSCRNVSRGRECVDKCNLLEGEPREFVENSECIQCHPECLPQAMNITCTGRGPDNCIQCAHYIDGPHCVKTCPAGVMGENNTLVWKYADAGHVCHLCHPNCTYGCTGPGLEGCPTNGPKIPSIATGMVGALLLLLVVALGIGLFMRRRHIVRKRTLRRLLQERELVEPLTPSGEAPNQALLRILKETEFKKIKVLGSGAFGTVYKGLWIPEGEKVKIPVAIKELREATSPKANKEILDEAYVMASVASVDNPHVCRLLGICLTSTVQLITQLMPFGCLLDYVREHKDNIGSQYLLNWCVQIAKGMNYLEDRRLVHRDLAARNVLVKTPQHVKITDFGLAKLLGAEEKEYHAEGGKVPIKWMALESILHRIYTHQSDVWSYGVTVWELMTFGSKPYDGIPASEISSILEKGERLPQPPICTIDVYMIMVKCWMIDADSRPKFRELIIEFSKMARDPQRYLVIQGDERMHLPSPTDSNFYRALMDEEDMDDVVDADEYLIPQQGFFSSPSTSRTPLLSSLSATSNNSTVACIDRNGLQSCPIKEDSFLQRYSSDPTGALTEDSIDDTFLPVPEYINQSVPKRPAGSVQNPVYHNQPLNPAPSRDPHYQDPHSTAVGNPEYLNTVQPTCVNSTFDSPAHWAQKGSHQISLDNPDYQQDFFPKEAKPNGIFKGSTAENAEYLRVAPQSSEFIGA
Sequence of EGFR Exon20NPG (P00533 other isoform, or with tags, fused parts or gaps del 1-694/ins NPG behind 770 limits assumed): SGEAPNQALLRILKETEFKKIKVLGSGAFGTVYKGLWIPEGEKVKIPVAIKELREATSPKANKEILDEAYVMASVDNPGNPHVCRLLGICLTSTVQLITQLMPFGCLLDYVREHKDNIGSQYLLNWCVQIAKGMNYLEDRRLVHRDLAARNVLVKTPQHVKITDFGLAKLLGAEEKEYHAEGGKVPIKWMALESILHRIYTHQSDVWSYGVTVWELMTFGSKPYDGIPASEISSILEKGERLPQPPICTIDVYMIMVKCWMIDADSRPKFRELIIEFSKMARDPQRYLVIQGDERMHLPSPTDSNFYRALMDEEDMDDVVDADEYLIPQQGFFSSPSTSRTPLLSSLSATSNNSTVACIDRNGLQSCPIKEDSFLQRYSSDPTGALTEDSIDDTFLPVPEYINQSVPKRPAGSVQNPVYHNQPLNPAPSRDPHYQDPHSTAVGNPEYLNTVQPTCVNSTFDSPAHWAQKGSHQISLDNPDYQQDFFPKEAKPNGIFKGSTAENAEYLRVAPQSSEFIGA
Sequence of EGFR L858R/T790M (P00533 25-1210 T790M/L858R): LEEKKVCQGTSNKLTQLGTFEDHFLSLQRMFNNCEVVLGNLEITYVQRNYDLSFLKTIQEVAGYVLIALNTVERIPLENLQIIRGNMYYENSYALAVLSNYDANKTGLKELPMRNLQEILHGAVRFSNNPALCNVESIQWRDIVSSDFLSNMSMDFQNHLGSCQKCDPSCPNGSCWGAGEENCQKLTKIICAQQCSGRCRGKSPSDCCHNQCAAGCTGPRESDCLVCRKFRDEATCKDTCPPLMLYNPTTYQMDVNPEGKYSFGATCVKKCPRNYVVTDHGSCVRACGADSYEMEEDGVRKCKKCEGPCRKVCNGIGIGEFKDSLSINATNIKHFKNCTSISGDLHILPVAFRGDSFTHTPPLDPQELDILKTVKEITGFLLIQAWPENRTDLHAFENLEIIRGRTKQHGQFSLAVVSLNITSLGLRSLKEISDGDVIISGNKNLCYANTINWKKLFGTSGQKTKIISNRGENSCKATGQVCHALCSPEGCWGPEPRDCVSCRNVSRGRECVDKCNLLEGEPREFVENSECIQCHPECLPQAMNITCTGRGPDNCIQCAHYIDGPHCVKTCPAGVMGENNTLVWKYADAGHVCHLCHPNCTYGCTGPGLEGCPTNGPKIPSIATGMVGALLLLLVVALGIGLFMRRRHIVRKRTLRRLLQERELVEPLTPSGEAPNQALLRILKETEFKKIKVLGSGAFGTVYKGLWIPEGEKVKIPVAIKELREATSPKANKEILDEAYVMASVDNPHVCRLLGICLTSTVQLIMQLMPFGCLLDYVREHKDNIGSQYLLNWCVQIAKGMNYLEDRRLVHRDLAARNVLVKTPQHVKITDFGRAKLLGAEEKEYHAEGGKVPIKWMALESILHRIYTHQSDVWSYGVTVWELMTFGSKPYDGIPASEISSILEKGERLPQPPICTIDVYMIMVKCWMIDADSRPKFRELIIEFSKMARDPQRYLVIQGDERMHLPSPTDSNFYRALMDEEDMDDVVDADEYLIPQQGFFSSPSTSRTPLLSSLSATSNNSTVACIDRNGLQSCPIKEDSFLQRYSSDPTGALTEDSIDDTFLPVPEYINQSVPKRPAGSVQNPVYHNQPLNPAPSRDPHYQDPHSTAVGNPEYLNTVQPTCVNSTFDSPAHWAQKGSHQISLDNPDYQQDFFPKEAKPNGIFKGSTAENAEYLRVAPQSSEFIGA
Sequence of EGFR L858R/T790M/C797S (P00533 25-1210 T790M/C797S/L858R): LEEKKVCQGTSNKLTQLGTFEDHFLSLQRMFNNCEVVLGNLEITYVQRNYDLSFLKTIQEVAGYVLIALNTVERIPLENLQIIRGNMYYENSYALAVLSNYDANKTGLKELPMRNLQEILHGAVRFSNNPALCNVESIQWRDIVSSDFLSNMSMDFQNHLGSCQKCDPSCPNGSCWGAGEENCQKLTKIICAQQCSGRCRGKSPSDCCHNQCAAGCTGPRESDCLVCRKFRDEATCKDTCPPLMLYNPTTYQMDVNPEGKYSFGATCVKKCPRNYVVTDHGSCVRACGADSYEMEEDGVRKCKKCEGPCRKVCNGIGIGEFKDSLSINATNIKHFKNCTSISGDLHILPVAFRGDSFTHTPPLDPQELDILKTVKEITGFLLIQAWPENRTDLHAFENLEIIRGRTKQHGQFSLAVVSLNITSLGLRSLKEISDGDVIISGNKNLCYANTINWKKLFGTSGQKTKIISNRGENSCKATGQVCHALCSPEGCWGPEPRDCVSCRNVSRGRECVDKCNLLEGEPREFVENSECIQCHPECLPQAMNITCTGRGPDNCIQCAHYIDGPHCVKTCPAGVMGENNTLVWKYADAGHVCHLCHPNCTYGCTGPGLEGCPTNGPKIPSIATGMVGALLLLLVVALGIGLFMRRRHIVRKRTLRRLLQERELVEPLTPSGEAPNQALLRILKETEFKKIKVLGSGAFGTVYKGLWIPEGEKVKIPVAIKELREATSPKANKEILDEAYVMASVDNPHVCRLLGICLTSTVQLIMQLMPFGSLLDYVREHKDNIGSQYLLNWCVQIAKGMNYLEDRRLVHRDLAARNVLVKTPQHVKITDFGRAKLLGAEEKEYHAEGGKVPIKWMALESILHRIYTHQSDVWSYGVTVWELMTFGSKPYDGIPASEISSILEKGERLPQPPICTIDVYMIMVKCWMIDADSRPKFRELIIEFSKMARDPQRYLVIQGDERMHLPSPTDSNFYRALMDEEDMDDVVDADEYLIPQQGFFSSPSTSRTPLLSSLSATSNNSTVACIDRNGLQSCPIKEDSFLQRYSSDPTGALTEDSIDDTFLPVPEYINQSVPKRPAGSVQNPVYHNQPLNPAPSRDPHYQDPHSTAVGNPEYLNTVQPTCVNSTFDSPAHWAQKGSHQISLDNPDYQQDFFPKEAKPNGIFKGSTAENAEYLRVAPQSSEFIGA

| Compound | EGFR protein remaining, EGFR-wt [1] | EGFR protein remaining, EGFR Exon 20 ASV [2] | pIC50 [3] | pIC50 [4] | pIC50 [5] | pIC50 [6] |
| --- | --- | --- | --- | --- | --- | --- |
| Cc1ncsc1-c1ccc(CNC(=O)[C@@H]2C[C@@H](O)CN2C(=O)[C@H](C(C)C)N2Cc3ccccc3C2=O)c(OCCN2CCN(Cc3ccc(-c4cc5c(NCc6ccccc6Cl)ncnc5[nH]4)cc3)CC2)c1 [Example 106, (2S,4R)—N-(2-(2-(4-(4-(4-((2-chlorobenzyl)amino)-7H-pyrrolo[2,3-d]pyrimidin-6-yl)benzyl)piperazin-1-yl)ethoxy)-4-(4-methylthiazol-5-yl)benzyl)-4-hydroxy-1-((S)-3-methyl-2-(1-oxoisoindolin-2-yl)butanoyl)pyrrolidine-2-carboxamide] | C (>80% EGFR protein remaining after 72 hours of incubation with the test compound at a concentration of 300 nM) | C (>80% EGFR protein remaining after 72 hours of incubation with the test compound at a concentration of 300 nM) | 6.33 | 5.31 | 5.28 | 5.72 |
| O=C1CCC(N2C(=O)c3ccc(OCCOCCOCCOCCOCCN4CCN(Cc5ccc(C6Cc7c(NCc8ccccc8Cl)ncnc7N6)cc5)CC4)cc3C2=O)C(=O)N1 (stereo not drawn) [compound 104] | C (>80% EGFR protein remaining after 72 hours of incubation with the test compound at a concentration of 300 nM) | C (>80% EGFR protein remaining after 72 hours of incubation with the test compound at a concentration of 300 nM) | 6.23 | 4.92 | 5.09 | 6.29 |
| Cc1ncsc1-c1ccc(CNC(=O)[C@@H]2C[C@@H](O)CN2C(=O)[C@H](C(C)C)N2Cc3ccccc3C2=O)c(OCCOCCOCCOCCN2CCN(Cc3ccc(-c4cc5c(NCc6ccccc6Cl)ncnc5[nH]4)cc3)CC2)c1 [compound 109] | C (>80% EGFR protein remaining after 72 hours of incubation with the test compound at a concentration of 300 nM) | C (>80% EGFR protein remaining after 72 hours of incubation with the test compound at a concentration of 300 nM) | 6.74 | 5.22 | 5.05 | 6.24 |
| O=C1CCC(N2C(=O)c3ccc(OCCOCCOCCN4CCN(Cc5ccc(-c6cc7c(NCc8ccccc8Cl)ncnc7[nH]6)cc5)CC4)cc3C2=O)C(=O)N1 (stereo not drawn) [Example 17, 5-(2-(2-(2-(4-(4-(4-((2-chlorobenzyl)amino)-7H-pyrrolo[2,3-d]pyrimidin-6-yl)benzyl)piperazin-1-yl)ethoxy)ethoxy)ethoxy)-2-(2,6-dioxopiperidin-3-yl)isoindoline-1,3-dione] | C (>80% EGFR protein remaining after 72 hours of incubation with the test compound at a concentration of 300 nM) | C (>80% EGFR protein remaining after 72 hours of incubation with the test compound at a concentration of 300 nM) | 6.66 | 5.14 | 5.31 | 6.72 |
| Cc1ncsc1-c1ccc(CNC(=O)[C@@H]2C[C@@H](O)CN2C(=O)[C@H](C(C)C)N2Cc3ccccc3C2=O)c(OCCOCCN2CCN(Cc3ccc(-c4cc5c(NCc6ccccc6Cl)ncnc5[nH]4)cc3)CC2)c1 [compound 107] | C (>80% EGFR protein remaining after 72 hours of incubation with the test compound at a concentration of 300 nM) | C (>80% EGFR protein remaining after 72 hours of incubation with the test compound at a concentration of 300 nM) | 6.85 | 5.17 | 5.22 | 6.22 |
| Cc1ncsc1-c1ccc(CNC(=O)[C@@H]2C[C@@H](O)CN2C(=O)[C@H](C(C)C)N2Cc3ccccc3C2=O)c(OCCOCCOCCOCCOCCN2CCN(Cc3ccc(-c4cc5c(NCc6ccccc6Cl)ncnc5[nH]4)cc3)CC2)c1 [compound 110] | C (>80% EGFR protein remaining after 72 hours of incubation with the test compound at a concentration of 300 nM) | C (>80% EGFR protein remaining after 72 hours of incubation with the test compound at a concentration of 300 nM) | 6.11 | 5.07 | 4.92 | 5.74 |
